In ChEMBL document CHEMBL1697731, “Cheminformatics analysis of assertions mined from literature that describe drug-induced liver injury in different species” (Chem Res Toxicol, 2010) one finds Hepatotoxicity data, which are given here for 30 compounds.

For data set [1], the system named is Hepatotoxicity. Description: Literature-mined compound from Fourches et al multi-species drug-induced liver injury (DILI) dataset, effect in humans. As to conditions: human.
Data set [2] relates to Hepatotoxicity. Description: Literature-mined compound from Fourches et al multi-species drug-induced liver injury (DILI) dataset, effect in rodents. The conditions noted are these: rodentia.
The test system of data set [3] is Hepatotoxicity. In words: Literature-mined compound from Fourches et al multi-species drug-induced liver injury (DILI) dataset, effect in non-rodents.

Where a SMILES comes first, the peptide text is derived from it. Bridges are numbered along the chain shown (N, C = ends). [ ]: non-standard residue; d: D form. The star is where a group is joined. Ileψ(thiazoline)Cys = CC[C@H](C)[C@H](N)C1=N[C@H](C(=O)*)CS1; dOrn = NCCC[C@@H](N)C(=O)O

On to `COc1ccc(Cl)cc1C(=O)NCCc1ccc(S(=O)(=O)NC(=O)NC2CCCCC2)cc1` [GLYBURIDE], for which the Hepatotoxicity result in the data set with Hepatotoxicity [1] is “drug-induced liver injury reported”; in the data set with Hepatotoxicity [2] it was “drug-induced liver injury reported”; in the data set on Hepatotoxicity [3], “no drug-induced liver injury reported”.
`Oc1ccccc1` [PHENOL]: the figures for the Hepatotoxicity entry in the data set on Hepatotoxicity [1] (Liver), in the data set on Hepatotoxicity [2] (Liver) and in the data set on Hepatotoxicity [3] (Liver) were “drug-induced liver injury reported”, “drug-induced liver injury reported” and “no drug-induced liver injury reported”, respectively.
Turning to `Cc1nnc(NS(=O)(=O)c2ccc(N)cc2)s1` [SULFAMETHIZOLE], the Hepatotoxicity entry in the data set with Hepatotoxicity [1] is on record as “drug-induced liver injury reported”; in the data set with Hepatotoxicity [2] it was “no drug-induced liver injury reported”; in the data set on Hepatotoxicity [3] it was “no drug-induced liver injury reported”.
As for `COC(=O)N[C@H](C(=O)N[C@@H](Cc1ccccc1)[C@@H](O)CN(Cc1ccc(-c2ccccn2)cc1)NC(=O)[C@@H](NC(=O)OC)C(C)(C)C)C(C)(C)C` [ATAZANAVIR], the Hepatotoxicity entry in the data set on Hepatotoxicity [1] was “drug-induced liver injury reported”; with Hepatotoxicity [2], “no drug-induced liver injury reported”; in the data set on Hepatotoxicity [3], “no drug-induced liver injury reported”.
Consider `CCOC(=O)[C@H](CCc1ccccc1)N[C@@H](C)C(=O)N1CCC[C@H]1C(=O)O`, for which the figures for the Hepatotoxicity result in the data set with Hepatotoxicity [1], in the data set on Hepatotoxicity [2] and with Hepatotoxicity [3] were “drug-induced liver injury reported”, “drug-induced liver injury reported” and “no drug-induced liver injury reported”, respectively.
On to `CO[C@H](C(=O)[C@@H](O)[C@@H](C)O)[C@@H]1Cc2cc3cc(O[C@H]4C[C@@H](O[C@H]5C[C@@H](O)[C@H](O)[C@@H](C)O5)[C@H](O)[C@@H](C)O4)c(C)c(O)c3c(O)c2C(=O)[C@H]1O[C@H]1C[C@@H](O[C@H]2C[C@@H](O[C@H]3C[C@](C)(O)[C@H](O)[C@@H](C)O3)[C@@H](O)[C@@H](C)O2)[C@H](O)[C@@H](C)O1` [PLICAMYCIN], for which the Hepatotoxicity result with Hepatotoxicity [1] is “drug-induced liver injury reported”; in the data set with Hepatotoxicity [2] it was “drug-induced liver injury reported”; with Hepatotoxicity [3], “no drug-induced liver injury reported”.
Turning to `O=C(O)c1ccc(-n2nc(-c3ccccc3O)nc2-c2ccccc2O)cc1` [DEFERASIROX], the Hepatotoxicity result is listed as “drug-induced liver injury reported” in the data set with Hepatotoxicity [1], “no drug-induced liver injury reported” in the data set on Hepatotoxicity [2] and “no drug-induced liver injury reported” in the data set with Hepatotoxicity [3].
As to `COc1ccc2nc([S@@+]([O-])Cc3ncc(C)c(OC)c3C)[nH]c2c1` [ESOMEPRAZOLE], the Hepatotoxicity entry in the data set with Hepatotoxicity [1] is on record as “drug-induced liver injury reported”; with Hepatotoxicity [2] it was “no drug-induced liver injury reported”; with Hepatotoxicity [3] it was “no drug-induced liver injury reported”.
In the case of `CC(C(=O)O)c1ccc(-c2ccccc2)c(F)c1` (stereo not given) [FLURBIPROFEN], the Hepatotoxicity result in the data set with Hepatotoxicity [1] is on record as “no drug-induced liver injury reported”; in the data set with Hepatotoxicity [2], “drug-induced liver injury reported”; in the data set with Hepatotoxicity [3], “drug-induced liver injury reported”.
As for `CC1=C(CC(=O)O)c2cc(F)ccc2/C1=C\c1ccc([S+](C)[O-])cc1` (stereo not given), the Hepatotoxicity result with Hepatotoxicity [1] was “drug-induced liver injury reported”; with Hepatotoxicity [2] it was “drug-induced liver injury reported”; with Hepatotoxicity [3] it was “no drug-induced liver injury reported”.
Take `CO[C@H]1/C=C/O[C@@]2(C)Oc3c(C)c(O)c4c(O)c(cc(O)c4c3C2=O)NC(=O)/C(C)=C\C=C\[C@H](C)[C@H](O)[C@@H](C)[C@@H](O)[C@@H](C)[C@H](OC(C)=O)[C@@H]1C` [RIFAMYCIN]: the Hepatotoxicity result is recorded as “drug-induced liver injury reported” in the data set on Hepatotoxicity [1], “drug-induced liver injury reported” with Hepatotoxicity [2] and “no drug-induced liver injury reported” in the data set with Hepatotoxicity [3].
Turning to `CC(C)CC(N(C)C)C1(c2ccc(Cl)cc2)CCC1` (stereo not given) [SIBUTRAMINE], the Hepatotoxicity result in the data set on Hepatotoxicity [1] was “drug-induced liver injury reported”; with Hepatotoxicity [2], “no drug-induced liver injury reported”; in the data set with Hepatotoxicity [3] it was “no drug-induced liver injury reported”.
Consider `COc1c(C)c2c(c(O)c1C/C=C(\C)CCC(=O)OCCN1CCOCC1)C(=O)OC2` [MYCOPHENOLATE MOFETIL], for which the results for the Hepatotoxicity result in the data set with Hepatotoxicity [1], in the data set with Hepatotoxicity [2] and with Hepatotoxicity [3] were “drug-induced liver injury reported”, “no drug-induced liver injury reported” and “no drug-induced liver injury reported”, respectively.
With `CCC1(c2ccccc2)CCC(=O)NC1=O` (stereo not given) [GLUTETHIMIDE], the Hepatotoxicity entry is “drug-induced liver injury reported” in the data set with Hepatotoxicity [1], “no drug-induced liver injury reported” with Hepatotoxicity [2] and “no drug-induced liver injury reported” with Hepatotoxicity [3].
Turning to `CC(NC(C)(C)C)C(=O)c1cccc(Cl)c1` (stereo not given) [BUPROPION], the Hepatotoxicity entry is “drug-induced liver injury reported” in the data set with Hepatotoxicity [1], “no drug-induced liver injury reported” with Hepatotoxicity [2] and “no drug-induced liver injury reported” with Hepatotoxicity [3].
VITAMIN B12: the Hepatotoxicity result in the data set on Hepatotoxicity [1] is listed as “drug-induced liver injury reported”; in the data set on Hepatotoxicity [2], “no drug-induced liver injury reported”; in the data set on Hepatotoxicity [3] it was “no drug-induced liver injury reported”.
With `CN1C[C@H](C(=O)N[C@]2(C)O[C@@]3(O)[C@@H]4CCCN4C(=O)[C@H](Cc4ccccc4)N3C2=O)C[C@@H]2c3cccc4[nH]cc(c34)C[C@H]21` [DIHYDROERGOTAMINE], the figures for the Hepatotoxicity entry with Hepatotoxicity [1], in the data set with Hepatotoxicity [2] and with Hepatotoxicity [3] were “drug-induced liver injury reported”, “drug-induced liver injury reported” and “no drug-induced liver injury reported”, respectively.
As for `O=C1NCCN1c1ncc([N+](=O)[O-])s1` [NIRIDAZOLE], the results for the Hepatotoxicity entry in the data set on Hepatotoxicity [1], in the data set on Hepatotoxicity [2] and in the data set on Hepatotoxicity [3] were “no drug-induced liver injury reported”, “drug-induced liver injury reported” and “no drug-induced liver injury reported”, respectively.
With `C[C@H]1O[C@@H](n2cc(F)c(=O)[nH]c2=O)[C@H](O)[C@@H]1O` [DOXIFLURIDINE], the Hepatotoxicity entry in the data set with Hepatotoxicity [1] was “drug-induced liver injury reported”; with Hepatotoxicity [2], “drug-induced liver injury reported”; with Hepatotoxicity [3], “no drug-induced liver injury reported”.
Consider `C[C@](N)(Cc1ccc(O)c(O)c1)C(=O)O` [METHYLDOPA], for which the Hepatotoxicity result with Hepatotoxicity [1] is “drug-induced liver injury reported”; with Hepatotoxicity [2], “no drug-induced liver injury reported”; in the data set with Hepatotoxicity [3], “no drug-induced liver injury reported”.
`CC[C@H](C)[C@H](N)C1=N[C@H](C(=O)N[C@@H](CC(C)C)C(=O)N[C@H](CCC(=O)O)C(=O)N[C@H](C(=O)N[C@H]2CCCCNC(=O)[C@H](CC(N)=O)NC(=O)[C@@H](CC(=O)O)NC(=O)[C@H](Cc3cnc[nH]3)NC(=O)[C@@H](Cc3ccccc3)NC(=O)[C@H]([C@@H](C)CC)NC(=O)[C@@H](CCCN)NC2=O)[C@@H](C)CC)CS1` [BACITRACIN] ({Ileψ(thiazoline)Cys}-L[dE]IK[dOrn]I[dF]H[dD]N; lactam 4-C): the Hepatotoxicity entry in the data set with Hepatotoxicity [1] was “no drug-induced liver injury reported”; with Hepatotoxicity [2], “drug-induced liver injury reported”; with Hepatotoxicity [3], “no drug-induced liver injury reported”.
Consider `CC[C@@H]1C(=O)OC[C@@H]1Cc1cncn1C` [PILOCARPINE], for which the values for the Hepatotoxicity result in the data set with Hepatotoxicity [1], in the data set on Hepatotoxicity [2] and with Hepatotoxicity [3] were “no drug-induced liver injury reported”, “drug-induced liver injury reported” and “no drug-induced liver injury reported”, respectively.
For the compound `O=P1(N(CCCl)CCCl)NCCCO1` (stereo not given) [CYCLOPHOSPHAMIDE ANHYDROUS], the Hepatotoxicity entry is given as “drug-induced liver injury reported” in the data set on Hepatotoxicity [1] (Liver), “drug-induced liver injury reported” with Hepatotoxicity [2] (Liver) and “no drug-induced liver injury reported” in the data set on Hepatotoxicity [3] (Liver).
On to `Cc1nccn1CC1CCc2c(c3ccccc3n2C)C1=O` (stereo not given) [ONDANSETRON], for which the values for the Hepatotoxicity entry in the data set on Hepatotoxicity [1], with Hepatotoxicity [2] and in the data set with Hepatotoxicity [3] were “drug-induced liver injury reported”, “no drug-induced liver injury reported” and “no drug-induced liver injury reported”, respectively.
For `C[C@]12C=CC(=O)C=C1CC[C@@H]1[C@@H]2[C@@H](O)C[C@@]2(C)[C@H]1CC[C@]2(O)C(=O)CO` [PREDNISOLONE], the results for the Hepatotoxicity entry with Hepatotoxicity [1], with Hepatotoxicity [2] and with Hepatotoxicity [3] were “drug-induced liver injury reported”, “drug-induced liver injury reported” and “no drug-induced liver injury reported”, respectively.
On to `C[C@]12CCC3=C4CCC(=O)C=C4CC[C@H]3[C@@H]1CC[C@@]2(O)CC#N` [DIENOGEST], for which the Hepatotoxicity entry was “no drug-induced liver injury reported” in the data set on Hepatotoxicity [1], “drug-induced liver injury reported” with Hepatotoxicity [2] and “no drug-induced liver injury reported” with Hepatotoxicity [3].
For the compound `CC(C)/N=c1\cc2n(-c3ccc(Cl)cc3)c3ccccc3nc-2cc1Nc1ccc(Cl)cc1` [CLOFAZIMINE], the Hepatotoxicity entry is reported as “drug-induced liver injury reported” with Hepatotoxicity [1], “no drug-induced liver injury reported” with Hepatotoxicity [2] and “no drug-induced liver injury reported” in the data set on Hepatotoxicity [3].
In the case of `NC(N)=Nc1nc(CSCCC(N)=NS(N)(=O)=O)cs1` [FAMOTIDINE], the Hepatotoxicity result is given as “drug-induced liver injury reported” with Hepatotoxicity [1] (Liver), “drug-induced liver injury reported” in the data set on Hepatotoxicity [2] (Liver) and “no drug-induced liver injury reported” in the data set with Hepatotoxicity [3] (Liver).
Turning to `Cc1ccc(O)c([C@H](CCN(C(C)C)C(C)C)c2ccccc2)c1` [TOLTERODINE], the Hepatotoxicity entry in the data set with Hepatotoxicity [1] is listed as “drug-induced liver injury reported”; in the data set with Hepatotoxicity [2], “no drug-induced liver injury reported”; in the data set on Hepatotoxicity [3], “no drug-induced liver injury reported”.
On to `C#C[C@]1(O)CC[C@H]2[C@@H]3CCC4=CCCC[C@@H]4[C@H]3C(=C)C[C@@]21CC.C#C[C@]1(O)CC[C@H]2[C@@H]3CCc4cc(O)ccc4[C@H]3CC[C@@]21C` [MARVELON], for which the results for the Hepatotoxicity entry with Hepatotoxicity [1], in the data set on Hepatotoxicity [2] and in the data set on Hepatotoxicity [3] were “drug-induced liver injury reported”, “no drug-induced liver injury reported” and “no drug-induced liver injury reported”, respectively.
